For 17 molecules, pest or weed control results are on record in patent publication US9096560B2, “5-heterocyclylalkyl-3-hydroxy-2-phenylcyclopent-2-enones as herbicides” (Syngenta Limited, priority 2008, dated 2015).

Assay type in all cases: in vivo
The subject of experiment [1] is Lolium perenne (LOLPE). The experiment is described as follows: Example B pre-emergence herbicidal test, LOLPE. To be noted: Lolium perenne, 312 h, rate 250 g/ha, evaluated after 13 days, 100=total damage to plant, 0=no damage to plant. The method in brief:
(§1)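 Plants were rated 13 days after treatment, 0 = no damage to 100 = total damage. They were grown in a glasshouse at 24/16 °C, 14 h light, 65% humidity and watered twice daily. Pre-emergence spray was applied one day after sowing, formulated in acetone/water 50:50 with 0.5% Tween 20.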

The test system of experiment [2] is Alopecurus myosuroides (ALOMY). The experiment is described as follows: Example B pre-emergence herbicidal test, ALOMY. The settings on record: Alopecurus myosuroides, 312 h, rate 250 g/ha, evaluated after 13 days, 100=total damage to plant, 0=no damage to plant. The method in brief:
as §1

Experiment [3] has as its system Echinochloa crus-galli (ECHCG). The experiment is described as follows: Example B pre-emergence herbicidal test, ECHCG. To be noted: Echinochloa crus-galli, 312 h, rate 250 g/ha, evaluated after 13 days, 100=total damage to plant, 0=no damage to plant. The method in brief: as §1
Experiment [4] concerns Avena fatua (AVEFA). Kind of experiment: Example B pre-emergence herbicidal test, AVEFA. To be noted: Avena fatua, 312 h, rate 250 g/ha, evaluated after 13 days, 100=total damage to plant, 0=no damage to plant. The gist of the method:
as §1

Experiment [5] relates to Lolium perenne (LOLPE). Kind of experiment: Example B post-emergence herbicidal test, LOLPE. The settings on record: Lolium perenne, 312 h, rate 250 g/ha, evaluated after 13 days, scale 0-100, read-out: Post-emergence activity LOLPE (100=total damage to plant; 0=no damage to plant). The gist of the method: (§2)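 Foliar application to 8-day-old pot-grown seedlings in a glasshouse (24/16 °C, 14 h photoperiod, 65% humidity). Spray solution was derived from an acetone/water (50:50) formulation with 0.5% Tween 20. Injury was assessed 13 days later on a 0–100 scale.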

In experiment [6] the test system is Alopecurus myosuroides (ALOMY). Kind of experiment: Example B post-emergence herbicidal test, ALOMY. To be noted: Alopecurus myosuroides, 312 h, rate 250 g/ha, evaluated after 13 days, scale 0-100, read-out: Post-emergence activity ALOMY (100=total damage to plant; 0=no damage to plant). The gist of the method: as §2
Experiment [7] concerns Echinochloa crus-galli (ECHCG). Kind of experiment: Example B post-emergence herbicidal test, ECHCG. To be noted: Echinochloa crus-galli, 312 h, rate 250 g/ha, evaluated after 13 days, scale 0-100, read-out: Post-emergence activity ECHCG (100=total damage to plant; 0=no damage to plant). The method in brief: as §2
Experiment [8] relates to Avena fatua (AVEFA). Kind of experiment: Example B post-emergence herbicidal test, AVEFA. The settings on record: Avena fatua, 312 h, rate 250 g/ha, evaluated after 13 days, scale 0-100, read-out: Post-emergence activity AVEFA (100=total damage to plant; 0=no damage to plant). The gist of the method: as §2

In the case of `COC(=O)N1CCC(/C=C2\CC(=O)C(c3c(C)cc(C)cc3C)C2=O)C1` (stereo not shown) [Compound T32], the pest or weed control at 250 g/ha in the experiment with Lolium perenne (LOLPE) [1] was 100%; in experiment [2], 70%; in experiment [3], 100%; in the experiment with Avena fatua (AVEFA) [4] it was 90%; in the experiment with Lolium perenne (LOLPE) [5] it was 90%; in experiment [6] it was 90%. In addition, the pest or weed control at 250 g/ha (in experiment [7]; in the experiment on Avena fatua (AVEFA) [8]) was 90% each time.

On to `CCSC(=O)N1CCC(/C=C2\CC(=O)C(c3c(C)cc(C)cc3C)C2=O)C1` (stereo not shown) [Compound T33], for which the pest or weed control at 250 g/ha with Lolium perenne (LOLPE) [1] was determined as 90%; in experiment [2], 60%; in experiment [3], 90%; with Avena fatua (AVEFA) [4] it was 50%; in the experiment with Lolium perenne (LOLPE) [5], 60%; in experiment [6], 60%. Moreover, the results for the pest or weed control at 250 g/ha (in experiment [7]; with Avena fatua (AVEFA) [8]) were 60% and 70%, respectively.

Take `Cc1cc(C)c(C2C(=O)C/C(=C\C3CCN(C(=O)c4ccccc4)C3)C2=O)c(C)c1` (stereo not shown) [Compound T34]: the pest or weed control at 250 g/ha with Lolium perenne (LOLPE) [1] worked out at 90%; in experiment [2] it was 70%; in experiment [3] it was 100%; in the experiment with Avena fatua (AVEFA) [4], 70%; in the experiment with Lolium perenne (LOLPE) [5], 90%; in experiment [6], 90%. Moreover, the pest or weed control at 250 g/ha (in experiment [7]; with Avena fatua (AVEFA) [8]) was 100% throughout.

Take `CC(=O)N1CCC(CC2CC(=O)C(c3c(C)cc(C)cc3C)C2=O)C1` (stereo not shown) [Compound T35]: the pest or weed control at 250 g/ha turned out to be 70% with Lolium perenne (LOLPE) [1]; 30% in experiment [2]; 40% in experiment [3]; 10% with Avena fatua (AVEFA) [4]; 70% in the experiment on Lolium perenne (LOLPE) [5]; 70% in experiment [6]. In addition, the pest or weed control at 250 g/ha in experiment [7] came out at 70%; in the experiment on Avena fatua (AVEFA) [8] it was 60%.

For the molecule `Cc1cc(C)c(C2C(=O)CC(CC3CCN(S(C)(=O)=O)C3)C2=O)c(C)c1` (stereo not shown) [Compound T36], the pest or weed control at 250 g/ha in the experiment with Lolium perenne (LOLPE) [1] stood at 90%; in experiment [2], 90%; in experiment [3] it was 100%; in the experiment on Avena fatua (AVEFA) [4] it was 90%; in the experiment with Lolium perenne (LOLPE) [5], 80%; in experiment [6] it was 80%. Also, the pest or weed control at 250 g/ha (in experiment [7]; with Avena fatua (AVEFA) [8]) was 90% in each case.

Turning to `Cc1cc(C)c(C2C(=O)CC(C(O)C3CCOC(C)(C)C3)C2=O)c(C)c1` (stereo not shown) [Compound T38], the pest or weed control at 250 g/ha in the experiment on Lolium perenne (LOLPE) [1] is 70%; in experiment [2], 90%; in experiment [3] it was 100%; in the experiment with Avena fatua (AVEFA) [4], 40%; in the experiment on Lolium perenne (LOLPE) [5], 100%; in experiment [6] it was 100%. The pest or weed control at 250 g/ha (in experiment [7]; in the experiment with Avena fatua (AVEFA) [8]) was 100% in each case.

Turning to `Cc1cc(C)c(C2C(=O)C/C(=C\C3CCN(C(=O)OCc4ccccc4)CC3)C2=O)c(C)c1` (stereo not shown) [Compound T42], the pest or weed control at 250 g/ha was determined as 0% in the experiment with Lolium perenne (LOLPE) [1]; 0% in experiment [2]; 20% in experiment [3]; 0% with Avena fatua (AVEFA) [4]; 20% in the experiment with Lolium perenne (LOLPE) [5]; 0% in experiment [6]. In addition, the pest or weed control at 250 g/ha in experiment [7] turned out to be 30%; with Avena fatua (AVEFA) [8], 0%.

`COC(=O)N1CCC(CC2CC(=O)C(c3c(C)cc(C)cc3C)C2=O)C1` (stereo not shown) [Compound T43]: the pest or weed control at 250 g/ha worked out at 100% in the experiment with Lolium perenne (LOLPE) [1]; 80% in experiment [2]; 100% in experiment [3]; 100% with Avena fatua (AVEFA) [4]; 100% with Lolium perenne (LOLPE) [5]; 90% in experiment [6]. Besides, the pest or weed control at 250 g/ha in experiment [7] was found to be 80%; in the experiment with Avena fatua (AVEFA) [8], 90%.

Regarding `CCC1CCC(CC2CC(=O)C(c3c(C)cc(C)cc3C)C2=O)O1` (stereo not shown) [Compound T44], the pest or weed control at 250 g/ha in the experiment on Lolium perenne (LOLPE) [1] was determined as 100%; in experiment [2], 90%; in experiment [3], 60%; in the experiment on Avena fatua (AVEFA) [4] it was 20%; in the experiment with Lolium perenne (LOLPE) [5] it was 70%; in experiment [6] it was 60%. Also, the figures for the pest or weed control at 250 g/ha (in experiment [7]; in the experiment on Avena fatua (AVEFA) [8]) were 80% and 40%, respectively.

On to `CC(=O)N1CCCCC1/C=C1\CC(=O)C(c2c(C)cc(C)cc2C)C1=O` (stereo not shown) [Compound T46], for which the pest or weed control at 250 g/ha stood at 10% in the experiment on Lolium perenne (LOLPE) [1]; 50% in experiment [2]; 10% in experiment [3]; 10% with Avena fatua (AVEFA) [4]; 40% in the experiment with Lolium perenne (LOLPE) [5]; 60% in experiment [6]. Also, the figures for the pest or weed control at 250 g/ha (in experiment [7]; in the experiment with Avena fatua (AVEFA) [8]) were 60% and 50%, respectively.

Turning to `Cc1cc(C)c(C2C(=O)C/C(=C\C3CCCCN3S(C)(=O)=O)C2=O)c(C)c1` (stereo not shown) [Compound T47], the pest or weed control at 250 g/ha in the experiment on Lolium perenne (LOLPE) [1] is 60%; in experiment [2], 20%; in experiment [3], 40%; with Avena fatua (AVEFA) [4], 50%; with Lolium perenne (LOLPE) [5], 30%; in experiment [6], 30%. Also, the pest or weed control at 250 g/ha was 60% in experiment [7] and 50% with Avena fatua (AVEFA) [8].

For `CC(=O)N1CCCCC1CC1CC(=O)C(c2c(C)cc(C)cc2C)C1=O` (stereo not shown) [Compound T48], the pest or weed control at 250 g/ha was determined as 90% with Lolium perenne (LOLPE) [1]; 90% in experiment [2]; 100% in experiment [3]; 90% with Avena fatua (AVEFA) [4]; 70% in the experiment on Lolium perenne (LOLPE) [5]; 90% in experiment [6]. Besides, the pest or weed control at 250 g/ha in experiment [7] was 100%; in the experiment on Avena fatua (AVEFA) [8], 90%.

`CCc1cc(C)cc(C)c1C1C(=O)CC(CC2CCOCC2)C1=O` (stereo not shown) [Compound T50]: the pest or weed control at 250 g/ha (in the experiment on Lolium perenne (LOLPE) [1]; in experiment [2]; in experiment [3]; in the experiment with Avena fatua (AVEFA) [4]; with Lolium perenne (LOLPE) [5]; in experiment [6]) was 100% each time. In addition, the pest or weed control at 250 g/ha (in experiment [7]; in the experiment on Avena fatua (AVEFA) [8]) was 100% throughout.

As to `Cc1cc(C)c(C2C(=O)CC(CC3CCCCN3S(C)(=O)=O)C2=O)c(C)c1` (stereo not shown) [Compound T51], the pest or weed control at 250 g/ha with Lolium perenne (LOLPE) [1] was 100%; in experiment [2] it was 80%; in experiment [3], 80%; in the experiment with Avena fatua (AVEFA) [4] it was 90%; with Lolium perenne (LOLPE) [5] it was 60%; in experiment [6], 70%. Further, the pest or weed control at 250 g/ha in experiment [7] stood at 70%; with Avena fatua (AVEFA) [8], 80%.

As for `Cc1cccc(C)c1C1C(=O)CC(CC2CCOCC2)C1=O` (stereo not shown) [Compound T52], the pest or weed control at 250 g/ha came out at 100% in the experiment on Lolium perenne (LOLPE) [1]; 100% in experiment [2]; 80% in experiment [3]; 80% with Avena fatua (AVEFA) [4]; 90% in the experiment with Lolium perenne (LOLPE) [5]; 90% in experiment [6]. Also, the values for the pest or weed control at 250 g/ha (in experiment [7]; with Avena fatua (AVEFA) [8]) were 100% and 80%, respectively.

For `Cc1cc(C)c(C2C(=O)C/C(=C\C3CCN(C(=O)OC(C)(C)C)CC3)C2=O)c(C)c1` (stereo not shown) [Compound T54], the pest or weed control at 250 g/ha in the experiment with Lolium perenne (LOLPE) [1] is 100%; in experiment [2], 80%; in experiment [3], 100%; in the experiment on Avena fatua (AVEFA) [4] it was 50%; in the experiment with Lolium perenne (LOLPE) [5], 70%; in experiment [6] it was 80%. For the same molecule, the pest or weed control at 250 g/ha (in experiment [7]; in the experiment with Avena fatua (AVEFA) [8]) was 80% throughout.

Consider `Cc1cc(C)c(C2C(=O)CC(CC3CCN(C(=O)OC(C)(C)C)CC3)C2=O)c(C)c1` (stereo not shown) [Compound T55], for which the pest or weed control at 250 g/ha in the experiment on Lolium perenne (LOLPE) [1] is 100%; in experiment [2] it was 80%; in experiment [3] it was 90%; in the experiment on Avena fatua (AVEFA) [4] it was 60%; with Lolium perenne (LOLPE) [5], 60%; in experiment [6] it was 70%. For the same molecule, the pest or weed control at 250 g/ha in experiment [7] is 70%; in the experiment on Avena fatua (AVEFA) [8] it was 50%.
